# Results: ChEMBL document CHEMBL4477261, “Design, synthesis and evaluation of the multidrug resistance-reversing activity of pyridine acid esters of podophyllotoxin in human leukemia cells” (Bioorg Med Chem Lett, 2016)
# Counter-ions that a name gives are not always drawn. Active and inactive are the calls of the source. No cut-off for these calls is given here.
# Key:
# K562 [1] = assay: Resistance factor, ratio of IC50 for human K562/ADR cells to IC50 for human K562 cells; assay type: functional
# K562/Adr [2] = assay: Antiproliferative activity against human K562/ADR cells after 72 hrs by CCK8 assay; assay type: functional, cell-based
# K562 [3] = assay: Antiproliferative activity against human K562 cells after 72 hrs by CCK8 assay; assay type: functional, cell-based; details: K562, 72 h
# [4] = molecular target: T1, Mitogen-activated protein kinase; ERK1/ERK2 (Homo sapiens) (UniProt P27361+P28482); assay: Induction of ERK1/2 phosphorylation in human K562/ADR cells at 0.1 uM after 48 hrs by Western blot analysis relative to control; assay type: cell-based
# T1 sequence (P27361 whole entry, looked up): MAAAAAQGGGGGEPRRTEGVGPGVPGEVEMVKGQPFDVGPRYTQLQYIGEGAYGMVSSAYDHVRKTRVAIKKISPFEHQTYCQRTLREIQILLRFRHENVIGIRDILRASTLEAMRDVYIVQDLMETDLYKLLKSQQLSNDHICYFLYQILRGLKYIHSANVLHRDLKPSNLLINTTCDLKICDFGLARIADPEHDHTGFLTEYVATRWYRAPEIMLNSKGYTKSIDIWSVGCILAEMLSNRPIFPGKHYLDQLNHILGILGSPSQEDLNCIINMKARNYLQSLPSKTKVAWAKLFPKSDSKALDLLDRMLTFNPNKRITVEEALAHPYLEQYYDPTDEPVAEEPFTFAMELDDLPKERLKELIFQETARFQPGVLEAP
# T1 sequence (P28482 whole entry, looked up): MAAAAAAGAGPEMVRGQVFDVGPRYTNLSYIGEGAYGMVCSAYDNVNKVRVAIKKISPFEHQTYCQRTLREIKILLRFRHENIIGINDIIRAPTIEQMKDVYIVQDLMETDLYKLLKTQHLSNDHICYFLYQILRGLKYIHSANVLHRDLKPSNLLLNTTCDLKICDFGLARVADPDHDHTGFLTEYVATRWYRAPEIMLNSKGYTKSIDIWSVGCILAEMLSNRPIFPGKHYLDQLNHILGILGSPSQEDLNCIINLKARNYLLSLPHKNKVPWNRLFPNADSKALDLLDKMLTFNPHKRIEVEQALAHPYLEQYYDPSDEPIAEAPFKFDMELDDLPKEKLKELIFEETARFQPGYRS
# [5] = molecular target: T1, Mitogen-activated protein kinase; ERK1/ERK2 (Homo sapiens); assay: Activation of ERK1/2 signalling in human K562/ADR cells assessed as suppression of CyclinB1 protein expression at 0.05 uM after 48 hrs by Western blot analysis relative to control; assay type: cell-based
# K562/Adr [6] = assay: Cell cycle arrest in human K562/ADR cells assessed as accumulation in S phase at 0.05 uM after 48 hrs by propidium iodide staining based flow cytometry (reference value: 43.39 +/- 0.69%); assay type: functional
# [7] = molecular target: T1, Mitogen-activated protein kinase; ERK1/ERK2 (Homo sapiens); assay: Activation of ERK1/2 signalling in human K562/ADR cells assessed as increase in cleaved caspase-9 expression at 0.1 uM after 48 hrs in presence of ERK1/2 inhibitor U0126 by Western blot analysis relative to control; assay type: cell-based
# K562/Adr [8] = assay: Induction of apoptosis in human K562/ADR cells assessed as necrotic cells at 0.05 uM after 48 hrs by Annexin V-APC/7-AAD staining based flow cytometry (reference value: 2.47%); assay type: functional
# K562 [9] = assay: Potency index, ratio of adriamycin IC50 to compound IC50 for human K562 cells; assay type: functional
# K562/Adr [10] = assay: Induction of apoptosis in human K562/ADR cells assessed as live cells at 0.1 uM after 48 hrs by Annexin V-APC/7-AAD staining based flow cytometry (reference value: 91.65%); assay type: functional
# K562/Adr [11] = assay: Induction of apoptosis in human K562/ADR cells assessed as late apoptotic cells at 0.05 uM after 48 hrs by Annexin V-APC/7-AAD staining based flow cytometry (reference value: 3.89%); assay type: functional
# K562/Adr [12] = assay: Induction of apoptosis in human K562/ADR cells assessed as early apoptotic cells at 0.1 uM after 48 hrs by Annexin V-APC/7-AAD staining based flow cytometry (reference value: 1.99%); assay type: functional
# K562/Adr [13] = assay: Potency index, ratio of adriamycin IC50 to compound IC50 for human K562/ADR cells; assay type: functional
# [14] = molecular target: T1, Mitogen-activated protein kinase; ERK1/ERK2 (Homo sapiens); assay: Activation of ERK1/2 signalling in human K562/ADR cells assessed as increase in cleaved caspase-9 expression at 0.1 uM after 48 hrs by Western blot analysis relative to control; assay type: cell-based
# [15] = molecular target: T1, Mitogen-activated protein kinase; ERK1/ERK2 (Homo sapiens); assay: Activation of ERK1/2 signalling in human K562/ADR cells assessed as increase in cleaved caspase-9 expression at 0.05 uM after 48 hrs by Western blot analysis relative to control; assay type: cell-based
# K562/Adr [16] = assay: Potency index, ratio of etoposide IC50 to compound IC50 for human K562/ADR cells; assay type: functional
# [17] = molecular target: T1, Mitogen-activated protein kinase; ERK1/ERK2 (Homo sapiens); assay: Activation of ERK1/2 signalling in human K562/ADR cells assessed as increase in cleaved caspase-8 expression at 0.1 uM after 48 hrs by Western blot analysis relative to control; assay type: cell-based
# [18] = molecular target: T1, Mitogen-activated protein kinase; ERK1/ERK2 (Homo sapiens); assay: Activation of ERK1/2 signalling in human K562/ADR cells assessed as increase in cleaved caspase-3 expression at 0.1 uM after 48 hrs in presence of ERK1/2 inhibitor U0126 by Western blot analysis relative to control; assay type: cell-based
# K562/Adr [19] = assay: Effect on total ERK1/2 protein expression level in human K562/ADR cells at 0.1 uM after 48 hrs in presence of ERK1/2 inhibitor U0126 by Western blot analysis relative to control; assay type: ADME, cell-based
# K562/Adr [20] = assay: Induction of apoptosis in human K562/ADR cells assessed as nuclear fragmentation at 0.05 to 0.1 uM after 48 hrs by Hoechst 33342 staining based fluorescent microscopic analysis; assay type: functional, cell-based
# [21] = molecular target: T1, Mitogen-activated protein kinase; ERK1/ERK2 (Homo sapiens); assay: Activation of ERK1/2 signalling in human K562/ADR cells assessed as increase in cleaved caspase-3 expression at 0.05 uM after 48 hrs by Western blot analysis relative to control; assay type: cell-based
# [22] = molecular target: T1, Mitogen-activated protein kinase; ERK1/ERK2 (Homo sapiens); assay: Induction of ERK1/2 phosphorylation in human K562/ADR cells at 0.05 uM after 48 hrs by Western blot analysis relative to control; assay type: cell-based
# [23] = molecular target: T1, Mitogen-activated protein kinase; ERK1/ERK2 (Homo sapiens); assay: Activation of ERK1/2 signalling in human K562/ADR cells assessed as suppression of CDK1 protein expression at 0.1 uM after 48 hrs in presence of ERK1/2 inhibitor U0126 by Western blot analysis relative to control; assay type: cell-based
# [24] = molecular target: T1, Mitogen-activated protein kinase; ERK1/ERK2 (Homo sapiens); assay: Induction of ERK1/2 phosphorylation in human K562/ADR cells at 0.1 uM after 48 hrs in presence of ERK1/2 inhibitor U0126 by Western blot analysis relative to control; assay type: cell-based
# K562/Adr [25] = assay: Effect on total ERK1/2 protein expression level in human K562/ADR cells at 0.05 uM after 48 hrs by Western blot analysis relative to control; assay type: ADME, cell-based
# [26] = molecular target: T1, Mitogen-activated protein kinase; ERK1/ERK2 (Homo sapiens); assay: Activation of ERK1/2 signalling in human K562/ADR cells assessed as increase in cleaved caspase-3 expression at 0.1 uM after 48 hrs by Western blot analysis relative to control; assay type: cell-based
# [27] = molecular target: T1, Mitogen-activated protein kinase; ERK1/ERK2 (Homo sapiens); assay: Activation of ERK1/2 signalling in human K562/ADR cells assessed as suppression of CyclinB1 protein expression at 0.1 uM after 48 hrs by Western blot analysis relative to control; assay type: cell-based
# [28] = molecular target: T1, Mitogen-activated protein kinase; ERK1/ERK2 (Homo sapiens); assay: Activation of ERK1/2 signalling in human K562/ADR cells assessed as suppression of P-gp expression at 0.1 uM after 48 hrs by Western blot analysis relative to control; assay type: cell-based
# K562/Adr [29] = assay: Induction of apoptosis in human K562/ADR cells assessed as late apoptotic cells at 0.1 uM after 48 hrs by Annexin V-APC/7-AAD staining based flow cytometry (reference value: 3.89%); assay type: functional
# K562/Adr [30] = assay: Induction of apoptosis in human K562/ADR cells assessed as chromatin condensation at 0.05 to 0.1 uM after 48 hrs by Hoechst 33342 staining based fluorescent microscopic analysis; assay type: functional, cell-based
# K562/Adr [31] = assay: Induction of apoptosis in human K562/ADR cells assessed as live cells at 0.05 uM after 48 hrs by Annexin V-APC/7-AAD staining based flow cytometry (reference value: 91.65%); assay type: functional
# K562/Adr [32] = assay: Cell cycle arrest in human K562/ADR cells assessed as accumulation in S phase at 0.1 uM after 48 hrs by propidium iodide staining based flow cytometry (reference value: 43.39 +/- 0.69%); assay type: functional
# [33] = molecular target: T1, Mitogen-activated protein kinase; ERK1/ERK2 (Homo sapiens); assay: Activation of ERK1/2 signalling in human K562/ADR cells assessed as increase in cleaved caspase-8 expression at 0.1 uM after 48 hrs in presence of ERK1/2 inhibitor U0126 by Western blot analysis relative to control; assay type: cell-based
# K562 [34] = assay: Potency index, ratio of etoposide IC50 to compound IC50 for human K562 cells; assay type: functional
# K562/Adr [35] = assay: Induction of apoptosis in human K562/ADR cells assessed as early apoptotic cells at 0.05 uM after 48 hrs by Annexin V-APC/7-AAD staining based flow cytometry (reference value: 1.99%); assay type: functional
# [36] = molecular target: T1, Mitogen-activated protein kinase; ERK1/ERK2 (Homo sapiens); assay: Activation of ERK1/2 signalling in human K562/ADR cells assessed as increase in cleaved caspase-8 expression at 0.05 uM after 48 hrs by Western blot analysis relative to control; assay type: cell-based
# K562/Adr [37] = assay: Effect on total ERK1/2 protein expression level in human K562/ADR cells at 0.1 uM after 48 hrs by Western blot analysis relative to control; assay type: ADME, cell-based
# [38] = molecular target: T1, Mitogen-activated protein kinase; ERK1/ERK2 (Homo sapiens); assay: Activation of ERK1/2 signalling in human K562/ADR cells assessed as suppression of P-gp expression at 0.1 uM after 48 hrs in presence of ERK1/2 inhibitor U0126 by Western blot analysis relative to control; assay type: cell-based
# K562/Adr [39] = assay: Potency index, ratio of podophyllotoxin IC50 to compound IC50 for human K562/ADR cells; assay type: functional
# [40] = molecular target: T1, Mitogen-activated protein kinase; ERK1/ERK2 (Homo sapiens); assay: Activation of ERK1/2 signalling in human K562/ADR cells assessed as suppression of P-gp expression at 0.05 uM after 48 hrs by Western blot analysis relative to control; assay type: cell-based
# K562/Adr [41] = assay: Induction of apoptosis in human K562/ADR cells assessed as necrotic cells at 0.1 uM after 48 hrs by Annexin V-APC/7-AAD staining based flow cytometry (reference value: 2.47%); assay type: functional
# [42] = molecular target: T1, Mitogen-activated protein kinase; ERK1/ERK2 (Homo sapiens); assay: Activation of ERK1/2 signalling in human K562/ADR cells assessed as suppression of CDK1 protein expression at 0.1 uM after 48 hrs by Western blot analysis relative to control; assay type: cell-based
# [43] = molecular target: T1, Mitogen-activated protein kinase; ERK1/ERK2 (Homo sapiens); assay: Activation of ERK1/2 signalling in human K562/ADR cells assessed as suppression of CDK1 protein expression at 0.05 uM after 48 hrs by Western blot analysis relative to control; assay type: cell-based
# [44] = molecular target: T1, Mitogen-activated protein kinase; ERK1/ERK2 (Homo sapiens); assay: Activation of ERK1/2 signalling in human K562/ADR cells assessed as suppression of CyclinB1 protein expression at 0.1 uM after 48 hrs in presence of ERK1/2 inhibitor U0126 by Western blot analysis relative to control; assay type: cell-based
smiles,measurement,setting,value
COc1cc([C@@H]2c3cc4c(cc3[C@H](OC(=O)c3ccnc(Br)c3)[C@H]3COC(=O)[C@H]23)OCO4)cc(OC)c1OC,Ratio IC50,K562 [1],2.521
same,IC50,K562/Adr [2],58 nM
same,IC50,K562 [3],23 nM
COc1cc([C@@H]2c3cc4c(cc3[C@H](OC(=O)c3cccc(Br)n3)[C@H]3COC(=O)[C@H]23)OCO4)cc(OC)c1OC,fold change (FC),[4],0.71
same,Ratio IC50,K562 [1],1.84
same,fold change (FC),[5],0.25
same,Activity,K562/Adr [6],53.74%
same,fold change (FC),[7],0.59
same,Activity,K562/Adr [8],6.37%
same,Ratio IC50,K562 [9],8.8
same,Activity,K562/Adr [10],41.01%
same,Activity,K562/Adr [11],18.84%
same,Activity,K562/Adr [12],9.15%
same,Ratio IC50,K562/Adr [13],408.23
same,fold change (FC),[14],0.75
same,fold change (FC),[15],0.49
same,Ratio IC50,K562/Adr [16],44.02
same,fold change (FC),[17],0.57
same,fold change (FC),[18],0.52
same,fold change (FC),K562/Adr [19],0.65
same,Activity,K562/Adr [20],Active
same,fold change (FC),[21],0.47
same,fold change (FC),[22],0.32
same,fold change (FC),[23],0.71
same,fold change (FC),[24],0.07
same,fold change (FC),K562/Adr [25],0.94
same,fold change (FC),[26],0.64
same,fold change (FC),[27],0.15
same,fold change (FC),[28],0.1
same,IC50,K562/Adr [2],46 nM
same,Activity,K562/Adr [29],44.02%
same,Activity,K562/Adr [30],Active
same,Activity,K562/Adr [31],67.37%
same,Activity,K562/Adr [32],64.17%
same,fold change (FC),[33],0.4
same,Ratio IC50,K562 [34],16.52
same,Activity,K562/Adr [35],7.42%
same,fold change (FC),[36],0.38
same,fold change (FC),K562/Adr [37],0.89
same,fold change (FC),[38],0.31
same,Ratio IC50,K562/Adr [39],0.54
same,fold change (FC),[40],0.26
same,Activity,K562/Adr [41],5.82%
same,fold change (FC),[42],0.46
same,fold change (FC),[43],0.81
same,fold change (FC),[44],0.2
same,IC50,K562 [3],25 nM
COc1cccc2c1C(=O)c1c(O)c3c(c(O)c1C2=O)C[C@@](O)(C(=O)CO)C[C@@H]3O[C@H]1C[C@H](N)[C@H](O)[C@H](C)O1 [DOXORUBICIN HYDROCHLORIDE],IC50,K562/Adr [2],18800 nM
same,IC50,K562 [3],220 nM
